Laboratory results taken from PMC3855387, “AMPK Activation through Mitochondrial Regulation Results in Increased Substrate Oxidation and Improved Metabolic Parameters in Models of Diabetes” (PLoS ONE, 2013).

Assays:
[1] = molecular target: T1, respiratory complex I (mitochondrial complex I) (Mus musculus, UniProt P03888+Q91WD5+Q9DC70); test: NADH oxidation (A340) in mouse liver mitochondrial lysate; succinate rescue of respiration in isolated mitochondria; assay type: biochemical
T1 construct: gene Ndufs2; native complex in mouse liver mitochondrial lysate

[2] = molecular target: T1, respiratory complex I (mitochondrial complex I); test: NADH oxidation (A340) in mouse liver mitochondrial lysate; assay type: biochemical

Compound	IC50 [1] [nM]	IC50 [2] [mM]
COc1ccc(C(=O)C2CCN(C(=O)c3ccc(C(=O)NC4CCN(Cc5ccc(C#N)cc5)CC4)cn3)CC2)cc1 [R419, N-(1-(4-cyanobenzyl)piperidin-4-yl)-6-(4-(4-methoxybenzoyl)piperidine-1-carbonyl)nicotinamide]	82	–
CN(C)C(=N)N=C(N)N [metformin]	–	27
